Assay results as given in patent publication US6057153A, “Stabilized external guide sequences” (Yale University, priority 1997, dated 2000).
Entries after “also recorded” stand apart in the source; their conditions may differ.

Legend:
2.1 kb HBV RNA = assay: RNAse P cleavage of large target RNA; type: biochemical; conditions: 250 nM EGS, 30 minutes at 37° C.
Procedure: To test cleavage with a longer target RNA molecules, different reaction conditions were used. Reactions in a total volume of 10 μl contained 40 mM Tris-HCl (pH 7.4), 10 mM MgCl2, 1 mM spermidine 10 mM dithiothreitol, 0.05 μg/μl nuclease-free bovine serum albumin, 0.01% (v/v) Triton-X100™, 0.8 Units/μl RNASIN, 0.2 mM ATP, 0.2 mM GTP, 0.2 mM UTP, 0.2 mM CTP, 0.1 μCi/μl [a^32 P] CTP, 2 mM m^7 G(5')pppG, 0.06 μg/μl yeast RNA, 25 mM KCl, 3 Units T7 RNA polymerase, 250 nM EGS, 1 μl of human RNAse P and 3 ng/μl linearized plasmid. Reactions were initiated by the addition of linearized plasmid and incubated for 30 minutes at 37° C. Reactions were terminated by the addition of 10 μl of 80% formaemide, 10 mM EDTA, 0.1% bromphenol blue. After heating for 2 minutes at 90° C., samples were electrophoresed for 2 hours at 48 watts on a 5% denaturing polyacrylamide gel. After vacuum drying for 1 hour at 60° C., the gel was analyzed by phosphoimaging.
Cleavage of Large Target RNA: Plasmid pAYW2.1, containing the sequence that encodes the 2.1 kb RNA of the AYW strain of HBV, was linearized by digestion with Not I, and then transcribed by T7 RNA polymerase in the presence of [α^32 P]CTP. Labeled transcripts were incubated for 30 minutes at 37° C. with RNase P in the presence of various EGS molecules. Reaction products were subjected to denaturing polyacrylamide gel electrophoresis, and analyzed by phosphoimaging. EGS-mediated cleavage at the targeted site of the 2.1 kb transcript produces cleavage products that are approximately 1.7 and 0.4 kb in length.

[1] = Nuclease resistance studies in 50% human serum; type: in vitro ADME; conditions: 37° C.
Procedure: Nuclease resistance studies--100 μl of EGS oligonucleotides (5 μM), containing a trace of 5'-end-labeled oligomers, were incubated at 37° C. for different time periods (0-24 h) with 50% human serum (Sigma, S-7023). 20 μl aliquots were diluted to 100 μl with RNase-free water, phenol/chlorform extracted, and ethanol precipitated. The residue was resuspended in 10 μl of TE and 10 μl of 2× gel loading buffer containing 98% formamide, 10 mM1 EDTA and 0.1% bromophenol blue. The mixture was heated to 85° C. for 1 min, quickly cooled on ice and frozen at -20° C. prior to electrophoresis on 15% polyacrylamide/8 M urea gels. Gels were subsequently scanned on a Molecular Dynamics PHOSPHORIMAGER™, and the stability profile for each, oligomer was estimated from the ratio of the remaining intact materials versus all radio-labeled materials (intact oligomers plus degradation products). Stability studies of non radio-labeled EGS oligomers using capillary gel electrophoresis were also carried out according to the method of Leeds et al. (15).

Substrate RNA (SUB-156) = assay: RNase P-mediated cleavage assay, single turnover conditions; type: biochemical, hepatitis B virus (HBV); conditions: 200 nM EGS, 20 nM substrate, saturating RNase P, 60 min
Procedure: RNase P-mediated cleavage assay--Human RNase P was purified from HeLa cells according to the published procedures (14). Substrate RNA (SUB-156, FIG. 24) was 5'-end labeled using T4 polynucleotide kinase and [γ-^32P]ATP. The labeling mixture was then heated to 85° C. for 1 min, diluted with RNase-free water, and purified by a MICROSPIN™ G-25 column (Pharmacia) according to the manufacturer's instructions. Cleavage reactions were conducted in a reaction buffer containing 50 mM Tris-HCl (pH 7.4), 25 mM KCl, 10 mM MgCl2 and 0.1 mM EDTA. EGS oligomers and ^32 p-5'-end-labeled RNA substrate were heated in the reaction buffer without MgCl2 to 85° C. for 1 min and then slowly cooled to room temperature. The cleavage reaction was initiated by adding 2 μl of 100 mM MgCl2 and 3 μl of RNase P (enzyme activity for this preparation: cleavage of 0.035 pmol of tRNA^Tyr precursor min^-1 μl^-1). The final reaction volume was 20 μl and the reaction was incubated at 37° C. for 60 min. […] For each sample, cleavage reactions were performed in duplicates and the average values were used. To ensure reproducibility, cleavage assays for each EGS were also repeated in two separate experiments. The all-RNA EGS-159 was used as the reference sample and its cleavage values were counted as 100%. Cleavage percentages of all other EGSs were normalized against EGS-159 (Rel. Cleavage %) except in FIG. 30 and FIG. 31 where absolute cleavage percentages (Abs. Cleavage %) were plotted.
For EGS-single turnover conditions, the final concentrations were 200 nM for EGS and 20(nM for the RNA substrate. For EGS-multiple turnover conditions, the final concentrations were 200 nM for the RNA substrate and 40 nM for EGS. When determination of the time-course was required, the reaction volume was increased to 40 μl. Aliquots of 5-8 μl were removed from the reaction mixture at different time points (e.g. 1, 5, 15, 30 and 60 min), quenched in formamide loading buffer, and loaded onto 15% polyacrylamide/8 M urea gels. Quantitation of the cleavage product and the remaining RNA substrate was achieved using a Molecular Dynamics PHOSPHORIMAGER™.
General considerations--To select lead nuclease-resistant oligonucleotide prototypes as external guide sequences among many possible modifications, a reliable yet rapid in vitro cleavage assay for routine screening was used. Human RNase P, a ribonucleoprotein, is composed of a 340-nt H1 RNA component and one or more proteins (for recent review, see Ref. 16). A 3-step screening strategy was devised: 1) All analogues once synthesized were tested by a fast qualitative cleavage assay under single turnover conditions with 10-fold excess of EGS over target RNA substrate for 60 min. […] This was the best cleavage condition used in this study. Any analogue with a reasonable activity (e.g. more than 5% cleavage) would not be missed, under these circumstances, due to the high detection sensitivity provided by PHOSPHORIMAGER™. 2) Promising analogues were then assayed for stability in 50% human serum.

[2] = tested on: short substrate (SEQ ID NO. 1) derived from the full-length pre-genomic HBV RNA; assay: RNAse P cleavage assay, short substrate; type: biochemical; conditions: short substrate, EGS 200 nM, 37° C., 1 hour
Procedure: RNAse P Cleavage Assays: Cleavage reactions were carried out generally according to the procedure described by Yuan et al., Proc. Natl. Acad. Sci., USA, 89:8006-8010, (1992), which is hereby incorporated by reference. Briefly, short substrate reactions were made up to a total volume of 31μ in 50 mM Tris-HCl pH 7.4, 10 mM MgCl2, 25 mM KCl, 0.1 mM EDTA, […] at 37° C. for 1 hour. After incubation, the reaction solution was mixed with loading buffer (98% formamide, 10 mM EDTA, 0.025% bromophenol blue). The cleaved substrate was separated from the uncleaved by electrophoresis on a 15% acrylamide gel containing 7 M urea. The bands were quantified on a Molecular Dynamics PHOSPHORIMAGER™.
The bands corresponding to the precursor RNA substrate and the resulting two cleavage products were counted from the dried gel using a BETASCOPE™ gel analyzer (Betagen).
RNAse P was purified by DEAE SEPHAROSE™ chromatography and glycerol density gradient centrifugation essentially as described by Bartkiewicz et al., Genes Dev. 3:488-499 (1989), which is hereby incorporated by reference.
The percentage of precursor RNA substrate remaining in either assay was plotted as function of the EGS concentration and the catalytic efficiency expressed as kcat /Km (where kcat is the rate constant of cleavage and Km is the Michaelis constant), the second order rate constant for the reaction of free EGS and substrate. Following the methods of Heidenreich and Eckstein (J. Biol. Chem., 267:1904-1909 (1992), the efficiency of the cleavage reaction, kcat /Km), was determined using the formula
The EGS constructs described in Example 2 were assayed using the RNAse P cleavage assays described in Example 1 to determine the efficiency of the cleavage reaction. FIG. 1 depicts the model system using a short substrate which was used to evaluate the ability of modified EGS molecules in inducing RNase P-mediated target cleavage. The sequence of the short substrate (SEQ ID NO. 1) was derived from the full-length pre-genomic HBV RNA.

## EGS H62: all-RNA EGS, SEQ ID NO. 3, prepared by T7 RNA polymerase transcription (guide CGAUGAAGGUUCGAAUCCUUCCCAGGAC; unmodified RNA)
2.1 kb HBV RNA
  RNase P-mediated cleavage of 2.1 kb HBV RNA: Complete cleavage

## EGS-364: EGS-356 with disrupted T-stem, SEQ ID NO. 34 (guide AGAUGAUACACUGUUCGAAUGGUACACGCCGCN; chemistry not given here)
[1]; experiment of 2 h
  stability in 50% human serum: did not change the results

## EGS-380: C56 in the T-loop substituted with rA, SEQ ID NO. 40 (guide AGAUGAUAGAAGGUUAGAAUCCUUCACGCCGC; Riboadenosine at tRNA position 56 of T-loop, rest of chemistry not given here)
Substrate RNA (SUB-156)
  RNase P-mediated cleavage activity compared to the all-RNA control: effectively substituted

## EGS-381: C56 in the T-loop substituted with rG, SEQ ID NO. 41 (guide AGAUGAUAGAAGGUUGGAAUCCUUCACGCCGC; Riboguanosine at tRNA position 56 of T-loop, rest of chemistry not given here)
Substrate RNA (SUB-156)
  RNase P-mediated cleavage activity compared to the all-RNA control: effectively substituted

## EGS-399: U54 replaced with riboadenosine, SEQ ID NO. 45 (AGAUGAUAGAAGGAUAGAAUCCUUCACGCCGC; guide RNA; Riboadenosine at tRNA position 54, rest of chemistry not given here)
Substrate RNA (SUB-156)
  RNase P-mediated cleavage activity compared to the all-RNA control: promising
[1]; 24 h
  fraction degraded in 50% human serum: 16%

## EGS-400: no RNA residues, remaining riboadenosines replaced by deoxynucleotides, SEQ ID NO. 47 (AGAUGAUAGAAGGUUAGAAUCCUUCACGCCGC; guide RNA; No RNA residues, remaining riboadenosines replaced by deoxynucleotides, other modifications not given here)
Substrate RNA (SUB-156)
  RNase P-mediated cleavage activity compared to the all-RNA control: Significant reduction in activity

## EGS-404: no RNA residues, remaining riboadenosines replaced by deoxynucleotides, SEQ ID NO. 48 (AGAUGAUAGAAGGAUAGAAUCCUUCACGCCGC; guide RNA; No RNA residues, remaining riboadenosines replaced by deoxynucleotides, other modifications not given here)
Substrate RNA (SUB-156)
  RNase P-mediated cleavage activity compared to the all-RNA control: Significant reduction in activity

## EGS-405: no RNA residues, remaining riboadenosines replaced by deoxynucleotides, SEQ ID NO. 49 (AGAUGAUAGAAGGTUAGAAUCCUUCACGCCGC; guide RNA; No RNA residues, remaining riboadenosines replaced by deoxynucleotides, other modifications not given here)
Substrate RNA (SUB-156)
  RNase P-mediated cleavage activity compared to the all-RNA control: Significant reduction in activity

## EGS-406: no RNA residues, remaining riboadenosines replaced by deoxynucleotides, SEQ ID NO. 50 (AGAUGAUAGAAGGUUAGAAUCCUUCACGCCGC; guide RNA; No RNA residues, remaining riboadenosines replaced by deoxynucleotides, other modifications not given here)
Substrate RNA (SUB-156)
  RNase P-mediated cleavage activity compared to the all-RNA control: Significant reduction in activity

## INNO-124: SEQ ID NO. 2, 2'-O-methyl arms, variable loop, T stem and first 5'-U of T loop (CGAUACGGAAGGUUCGAAUCCUUCCCAGGAC; 2'-O-methyl modifications, chemistry not fully specified)
[2]
  efficiency of RNase P-mediated target cleavage relative to the wild-type EGS: most pronounced decrease in cleavage efficiency

## INNO-126: SEQ ID NO. 2, 2'-O-methyl arms, variable loop, T stem and third 5'-C of T loop (CGAUACGGAAGGUUCGAAUCCUUCCCAGGAC; 2'-O-methyl modifications, chemistry not fully specified)
[2]
  efficiency of RNase P-mediated target cleavage relative to the wild-type EGS: most pronounced decrease in cleavage efficiency

## INNO-149: SEQ ID NO. 3, 2'-O-methyl arms and T stem, phosphorothioate T loop, 3'-amino group (CGAUGAAGGUUCGAAUCCUUCCCAGGAC; 2'-O-methyl, phosphorothioate T loop, 3'-amino, chemistry not fully specified)
2.1 kb HBV RNA
  RNase P-mediated cleavage of 2.1 kb HBV RNA: capable of inducing RNase P-mediated cleavage; also recorded: mostly cleaved
2.1 kb HBV RNA; listed as analogue 149
  RNase P-mediated cleavage of 2.1 kb HBV RNA: more effective than analogue 155
